Measured values: patent US20200164026A1, “Intranasal Delivery of Cell Permeant Therapeutics” (The Trustees of Columbia University in the City of New York, priority 2010, published 2020)

Experiments:
[1] = test system: cleaved caspase-6 (c1-C6) and caspase-9; assay: Pen1-XBIR3 delivered to the striatum (CED/ICC) prior to tMCAo; immunostaining for c1-C6 and caspase-9; assay type: in vivo, rat; settings: delivered to striatum 1 hr prior to tMCAo, 24 hpr
From the text: (Davidson, et al., J Neurosci 24 (45), 10040-10046 (2004)). Upon entry into the cell the disulfide linkage is broken by the reducing environment of the cytoplasm, releasing the peptide cargo and allowing it to act at its target. Functional efficacy of this construct was confirmed using hippocampal neuronal cultures that were subjected to 4-hydroxynonenal (HNE) mediated death, a caspase-9 dependent death. (Rabacchi, et al., Neurobiol Aging 25 (8), 1057-1066 (2004)). […] To ensure that a Pen1-peptide could be delivered to the brain, Pen1 was linked to a FITC-labeled control peptide and delivered to the striatum using convection enhanced delivery (CED). Brains were harvested 24 hr after delivery, sectioned, and imaged. […] Pent-XBIR3 was delivered to the striatum 1 hr prior to tMCAo using ICC. Animals were harvested at 24 hpr and immunostained for caspase-9 and c1-C6. […]
Pen1-XBIR3. […] Linkage was assessed by 20% SDS-PAGE and western blotting with anti-His antibody. […]
Immunohistochemistry (IHC), Cell Process Quantification, and Statistical Analysis. […] Quantification of neurons and axons was accomplished using the Cell Counter plug-in for ImageJ (NIH). For quantification in the rat brain, 20x magnification images were acquired from the dorsal motor cortex and the […] somatosensory cortex forelimb region; both regions are contained are within the infarct penumbra (FIG. 1A). […]

[2] = test system: hippocampal neuronal cultures; assay: Neuronal survival assay, 4-hydroxynonenal (HNE) mediated death; assay type: cell-based, rat; settings: HNE 3 μM, Pen1-XBIR3 80 nM, 1 day
From the text: (Davidson, et al., J Neurosci 24 (45), 10040-10046 (2004)). Upon entry into the cell the disulfide linkage is broken by the reducing environment of the cytoplasm, releasing the peptide cargo and allowing it to act at its target. Functional efficacy of this construct was confirmed using hippocampal neuronal cultures that were subjected to 4-hydroxynonenal (HNE) mediated death, a caspase-9 dependent death. (Rabacchi, et al., Neurobiol Aging 25 (8), 1057-1066 (2004)). […] To ensure that a Pen1-peptide could be delivered to the brain, Pen1 was linked to a FITC-labeled control peptide and delivered to the striatum using convection enhanced delivery (CED). Brains were harvested 24 hr after delivery, sectioned, and imaged. […] Pent-XBIR3 was delivered to the striatum 1 hr prior to tMCAo using ICC. Animals were harvested at 24 hpr and immunostained for caspase-9 and c1-C6. […] Thus, caspase-9 activity was necessary for activation of caspase-6 in neuron soma and processes following a transient ischemic event in rats.
Rat Hippocampal cultures. […]
Neuronal survival assay. […] After 1 day of treatment cells number was quantified as previously described. […] Briefly, the cells were lysed in counting buffer and intact nuclei were counted using a hemocytometer. […]

[3] = test system: rats subjected to tMCAo; assay: 24-point neurofunctional scale after 2 hr tMCAo, monitored for 21 days; assay type: in vivo, rat
Procedure: The efficacy of Pent-XBIR3 to prevent sensory-motor disability caused by stroke was tested by giving rats either a prophylatic (pre-occlusion) or therapeutic (4 hours post reperfusion) intranasal bolus of vehicle or Pent-XBIR3 (prepared and administerd as described in section 6.8, below). Rodents were assayed with a 24-point neurofunctional scale starting at 1 day post-ischemia with testing every other day for 3 weeks after the ischemic event.
(§1) Intranasal Delivery of Pen1-XBIR3. While under isofluorane anesthesia and lying on their backs, Pen1-XBIR3 (36.8 μM) was delivered to rats by administering 6 μl drops to alternating nares every two minutes for 20 minutes (60 μl total delivered). (Thorne, et al., Neuroscience 127 (2), 481-496 (2004)). Intranasal treatment was done prior to induction of stroke. Saline was used as a negative control. Brains were harvested for immunohistochemistry or western blotting.

[4] = test system: rats subjected to tMCAo; assay: Ischemic infarct volume (H&E) after intranasal Pen1-XBIR3 and tMCAo; assay type: in vivo, rat; settings: 24 hpr, n=3
Procedure: as §1

## Pen1-XBIR3: BIR3 domain from XIAP, a specific caspase-9 inhibitor, disulfide-linked to Penetratin1 cell transduction peptide (SEQ ID NO: 10)
[1]
  caspase-9 and c1-C6 immunostaining in neuronal soma and processes: blocks the increase in caspase-9 and the induction of c1-C6
[1]; listed as Pent-XBIR3
  caspase-9 and c1-C6 immunostaining in neuronal soma and processes: inhibited appearance of c1-C6 and caspase-9
[2]
  neuronal death / survival: abrogated death
[3]; prophylactic (pre-occlusion) intranasal bolus
  neurofunctional score (stroke related disability): less stroke related disability
[3]; therapeutic (4 hours post reperfusion) intranasal bolus
  neurofunctional score (stroke related disability): functional recovery up to 21 d
[3]; therapeutic (4 hours post reperfusion) intranasal bolus, listed as Pent-XBIR3
  neurofunctional score (stroke related disability): less stroke related disability
[4]
  ischemic infarct volume: reduces ischemic infarct volume
